Source: patent US11407737B2, “Inhibitors of RAF kinases” (Kinnate Biopharma Inc., priority 2020, dated 2022)

What follows are compounds tested against human RAF1 (Homo sapiens (Human), UniProt P04049) (assay: Protein kinase assay (radiometric 33P-ATP, MEK1 (K97R) substrate), RAF-1). Conditions: not given.
Format: biochemical
Description: Example 1: Kinase Assay Protocol
Assay platform was used to measure kinase/inhibitor interactions as described previously (Anastassiadis et al., 2011). In brief, for each reaction, kinase and substrate were mixed in a buffer containing 20 mM HEPES (pH 7.5), 10 mM MgCl2, 1 mM EGTA, 0.02% Brij35, 0.02 mg/mL BSA, 0.1 mM Na3VO4, 2 mM DTT, and 1% DMSO. All compounds were solubilized in DMSO. Compounds were then added to each reaction mixture via acoustic dispense using an ECHO 550 nanoliter dispenser. For human RAF1 testing, human MEK1 (K97R) was used as a substrate at a concentration of 3 micromolar, with a final ATP concentration of 10 micromolar. For human BRAF testing, human MEK1 (K97R) was used as a substrate at 1 micromolar concentration, with a final ATP concentration of 25 micromolar. […] After a 20-min incubation, ATP (Sigma-Aldrich, St. Louis, Mo. 63178) and [g33P] ATP (specific activity 10 microCi/microliter) purchased at PerkinElmer (Boston, Mass., 02118 Cat #BLU 003H250UC) were added at a final total concentration of […]. Reactions were carried out at room temperature for 2 hr and spotted onto P81 ion exchange cellulose chromatography paper (Reaction Biology). Filter paper was washed in 0.75% phosphoric acid to remove unincorporated ATP. The percent remaining kinase activity relative to a vehicle-containing (DMSO) kinase reaction was calculated for each kinase/inhibitor pair. IC50 values were calculated using Prism 5 (GraphPad).

Sequence of human RAF1 (P04049 whole entry): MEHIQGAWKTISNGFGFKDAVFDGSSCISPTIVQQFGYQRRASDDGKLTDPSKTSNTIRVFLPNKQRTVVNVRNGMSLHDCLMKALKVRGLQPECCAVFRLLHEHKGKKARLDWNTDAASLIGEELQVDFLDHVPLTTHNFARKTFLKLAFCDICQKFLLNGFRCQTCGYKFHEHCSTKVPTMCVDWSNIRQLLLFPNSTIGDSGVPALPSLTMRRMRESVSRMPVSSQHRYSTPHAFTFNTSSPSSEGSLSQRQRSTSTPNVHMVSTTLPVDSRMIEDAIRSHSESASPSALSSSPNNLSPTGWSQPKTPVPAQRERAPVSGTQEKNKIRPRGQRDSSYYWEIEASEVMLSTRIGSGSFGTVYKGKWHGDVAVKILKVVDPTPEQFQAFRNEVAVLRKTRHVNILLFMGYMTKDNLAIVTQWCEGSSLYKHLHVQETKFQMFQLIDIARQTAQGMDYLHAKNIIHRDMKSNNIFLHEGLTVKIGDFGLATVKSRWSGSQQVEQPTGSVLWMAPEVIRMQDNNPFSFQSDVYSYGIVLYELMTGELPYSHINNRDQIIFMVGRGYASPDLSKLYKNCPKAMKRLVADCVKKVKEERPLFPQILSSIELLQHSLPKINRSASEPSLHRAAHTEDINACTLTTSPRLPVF

SMILES | IC50 [nM]
Cc1ccc(NC(=O)N2CC[C@@H](CC(F)(F)F)C2)cc1-c1cc(C(=O)NC[C@@H](C)O)nc(N2CCOCC2)c1 [Example 5, N-[(2R)-2-hydroxypropyl]-4-[2-methyl-5-[(3S)-3-(2,2,2-trifluoroethyl)pyrrolidine-1-carbonylamino]phenyl]-6-(morpholin-4-yl)pyridine-2-carboxamide] | 1 to 10

Same assay, conditions: human MEK1 (K97R) substrate 3 micromolar, ATP 10 micromolar; 10-dose, 3-fold serial dilution starting at 10 micromolar; read-out: RAF-1 IC50

SMILES | IC50 [nM]
Cc1cc(F)c(NC(=O)N2CC[C@@H](C(F)(F)C(F)(F)F)C2)cc1-c1cc(-c2cnn(C)c2)nc(N2CCOCC2)c1 (single isomer, unassigned) [Example 80] | 1 to 10
Cc1cc(F)c(NC(=O)N2CC[C@H](C(F)(F)C(F)(F)F)C2)cc1-c1cc(-c2cnn(C)c2)nc(N2CCOCC2)c1 (single isomer, unassigned) [Example 81] | 1 to 10
Cc1cc(F)c(NC(=O)N2CC[C@@H](C(C)(C)C)C2)cc1-c1cc(-c2cnn(C)c2)nc(N2CCOCC2)c1 (single isomer, unassigned) [Example 82] | 1 to 10
Cc1cc(F)c(NC(=O)N2CC[C@@H](C(C)(F)F)C2)cc1-c1cc(-c2cnn(C)c2)nc(N2CCOCC2)c1 (single isomer, unassigned) [Example 84] | < 1
Cc1cc(-c2cc(NC(=O)N3CC[C@@H](CC(F)(F)F)C3)ccc2C)cc(N2CCOCC2)n1 [Example 1, (3S)—N-[4-methyl-3-[2-methyl-6-(morpholin-4-yl)pyridin-4-yl]phenyl]-3-(2,2,2-trifluoroethyl)pyrrolidine-1-carboxamide] | 1 to 10
Cc1ccc(NC(=O)N2CC[C@@H](CC(F)(F)F)C2)cc1-c1cc(C(N)=O)nc(N2CCOCC2)c1 [Example 2, 4-[2-methyl-5-[(3S)-3-(2,2,2-trifluoroethyl)pyrrolidine-1-carbonylamino]phenyl]-6-(morpholin-4-yl)pyridine-2-carboxamide] | 1 to 10
CNC(=O)c1cc(-c2cc(NC(=O)N3CC[C@@H](CC(F)(F)F)C3)ccc2C)cc(N2CCOCC2)n1 [Example 3, N-methyl-4-[2-methyl-5-[(3S)-3-(2,2,2-trifluoroethyl)pyrrolidine-1-carbonylamino]phenyl]-6-(morpholin-4-yl)pyridine-2-carboxamide] | 1 to 10
Cc1ccc(NC(=O)N2CC[C@@H](CC(F)(F)F)C2)cc1-c1cc(C(=O)NCCO)nc(N2CCOCC2)c1 [Example 4, N-(2-hydroxyethyl)-4-[2-methyl-5-[(3S)-3-(2,2,2-trifluoroethyl)pyrrolidine-1-carbonylamino]phenyl]-6-(morpholin-4-yl)pyridine-2-carboxamide] | 1 to 10
Cc1ccc(NC(=O)N2CC[C@@H](CC(F)(F)F)C2)cc1-c1cc(C(=O)N[C@H](C)CO)nc(N2CCOCC2)c1 [Example 6, N-[(2R)-1-hydroxypropan-2-yl]-4-[2-methyl-5-[(3S)-3-(2,2,2-trifluoroethyl)pyrrolidine-1-carbonylamino]phenyl]-6-(morpholin-4-yl)pyridine-2-carboxamide] | 1 to 10
Cc1ccc(NC(=O)N2CC[C@@H](CC(F)(F)F)C2)cc1-c1cc(C(=O)NC[C@H](C)O)nc(N2CCOCC2)c1 [Example 7, N-[(2S)-2-hydroxypropyl]-4-[2-methyl-5-[(3S)-3-(2,2,2-trifluoroethyl)pyrrolidine-1-carbonylamino]phenyl]-6-(morpholin-4-yl)pyridine-2-carboxamide] | < 1
Cc1ccc(NC(=O)N2CC[C@@H](CC(F)(F)F)C2)cc1-c1cc(C(=O)N[C@@H](C)CO)nc(N2CCOCC2)c1 [Example 8, N-[(2S)-1-hydroxypropan-2-yl]-4-[2-methyl-5-[(3S)-3-(2,2,2-trifluoroethyl)pyrrolidine-1-carbonylamino]phenyl]-6-(morpholin-4-yl)pyridine-2-carboxamide] | < 1
Cc1ccc(NC(=O)N2CC[C@@H](CC(F)(F)F)C2)cc1-c1cc(C(=O)NCC(C)(C)O)nc(N2CCOCC2)c1 [Example 9, N-(2-hydroxy-2-methylpropyl)-4-[2-methyl-5-[(3S)-3-(2,2,2-trifluoroethyl)pyrrolidine-1-carbonylamino]phenyl]-6-(morpholin-4-yl)pyridine-2-carboxamide] | 1 to 10
Cc1ccc(NC(=O)N2CC[C@@H](CC(F)(F)F)C2)cc1-c1cc(C#CC(C)(C)O)nc(N2CCOCC2)c1 [Example 10, (3S)—N-[3-[2-(3-hydroxy-3-methylbut-1-yn-1-yl)-6-(morpholin-4-yl)pyridin-4-yl]-4-methylphenyl]-3-(2,2,2-trifluoroethyl)pyrrolidine-1-carboxamide] | 1 to 10
Cc1ccc(NC(=O)N2CC[C@@H](CC(F)(F)F)C2)cc1-c1cc(C#C[C@@H](C)O)nc(N2CCOCC2)c1 [Example 11, (3S)—N-(3-[2-[(3R)-3-hydroxybut-1-yn-1-yl]-6-(morpholin-4-yl)pyridin-4-yl]-4-methylphenyl)-3-(2,2,2-trifluoroethyl)pyrrolidine-1-carboxamide] | 1 to 10
Cc1ccc(NC(=O)N2CC[C@@H](CC(F)(F)F)C2)cc1-c1cc(CC[C@@H](C)O)nc(N2CCOCC2)c1 [Example 12, (3S)—N-(3-[2-[(3R)-3-hydroxybutyl]-6-(morpholin-4-yl)pyridin-4-yl]-4-methylphenyl)-3-(2,2,2-trifluoroethyl)pyrrolidine-1-carboxamide] | < 1
Cc1ccc(NC(=O)N2CC[C@@H](CC(F)(F)F)C2)cc1-c1cc([C@@H]2C[C@@H]2CO)nc(N2CCOCC2)c1 [Example 13, (3S)—N-(3-[2-[(1R,2S)-2-(hydroxymethyl)cyclopropyl]-6-(morpholin-4-yl)pyridin-4-yl]-4-methylphenyl)-3-(2,2,2-trifluoroethyl)pyrrolidine-1-carboxamide] | < 1
Cc1ccc(NC(=O)N2CC[C@@H](CC(F)(F)F)C2)cc1-c1cc(-c2cn(C)nn2)nc(N2CCOCC2)c1 [Example 14, (S)—N-(4-methyl-3-(2-(1-methyl-1H-1,2,3-triazol-4-yl)-6-morpholinopyridin-4-yl)phenyl)-3-(2,2,2-trifluoroethyl)pyrrolidine-1-carboxamide] | 1 to 10
Cc1ccc(NC(=O)N2CC[C@@H](CC(F)(F)F)C2)cc1-c1cc(-c2cncs2)nc(N2CCOCC2)c1 [Example 15, (3S)—N-[4-methyl-3-[2-(morpholin-4-yl)-6-(1,3-thiazol-5-yl)pyridin-4-yl]phenyl]-3-(2,2,2-trifluoroethyl)pyrrolidine-1-carboxamide] | 1 to 10
Cc1ccc(NC(=O)N2CC[C@@H](CC(F)(F)F)C2)cc1-c1cc(-c2cncn2C)nc(N2CCOCC2)c1 [Example 16, (3S)—N-[4-methyl-3-[2-(3-methylimidazol-4-yl)-6-(morpholin-4-yl)pyridin-4-yl]phenyl]-3-(2,2,2-trifluoroethyl)pyrrolidine-1-carboxamide] | 1 to 10
Cc1ccc(NC(=O)N2CC[C@@H](CC(F)(F)F)C2)cc1-c1cc(/C=C/[C@@H](C)O)nc(N2CCOCC2)c1 [Example 17, (3S)—N-(3-[2-[(1E,3R)-3-hydroxybut-1-en-1-yl]-6-(morpholin-4-yl)pyridin-4-yl]-4-methylphenyl)-3-(2,2,2-trifluoroethyl)pyrrolidine-1-carboxamide] | 1 to 10
Cc1ccc(NC(=O)N2CC[C@@H](CC(F)(F)F)C2)cc1-c1cc(C(=O)N(C)CCO)nc(N2CCOCC2)c1 [Example 18, N-(2-hydroxyethyl)-N-methyl-4-[2-methyl-5-[(3S)-3-(2,2,2-trifluoroethyl)pyrrolidine-1-carbonylamino]phenyl]-6-(morpholin-4-yl)pyridine-2-carboxamide] | < 1
Cc1ccc(NC(=O)N2CC[C@@H](CC(F)(F)F)C2)cc1-c1cc(C(=O)N2CC(O)C2)nc(N2CCOCC2)c1 [Example 20, (3S)—N-[3-[2-(3-hydroxyazetidine-1-carbonyl)-6-(morpholin-4-yl)pyridin-4-yl]-4-methylphenyl]-3-(2,2,2-trifluoroethyl)pyrrolidine-1-carboxamide] | < 1
Cc1ccc(NC(=O)N2CC[C@@H](CC(F)(F)F)C2)cc1-c1cc(C(=O)N2CC(C)(O)C2)nc(N2CCOCC2)c1 [Example 21, (3S)—N-[3-[2-(3-hydroxy-3-methylazetidine-1-carbonyl)-6-(morpholin-4-yl)pyridin-4-yl]-4-methylphenyl]-3-(2,2,2-trifluoroethyl)pyrrolidine-1-carboxamide] | < 1
Cc1ccc(NC(=O)N2CC[C@@H](CC(F)(F)F)C2)cc1-c1cc(-c2cnn(C)c2)nc(N2CCOCC2)c1 [Example 22, (3S)—N-[4-methyl-3-[2-(1-methylpyrazol-4-yl)-6-(morpholin-4-yl)pyridin-4-yl]phenyl]-3-(2,2,2-trifluoroethyl)pyrrolidine-1-carboxamide] | < 1
Cc1ccc(NC(=O)N2CC[C@@H](CC(F)(F)F)C2)cc1-c1cc(/C=C/CO)nc(N2CCOCC2)c1 [Example 23, (3S)—N-(3-[2-[(1E)-3-hydroxyprop-1-en-1-yl]-6-(morpholin-4-yl)pyridin-4-yl]-4-methylphenyl)-3-(2,2,2-trifluoroethyl)pyrrolidine-1-carboxamide] | < 1
